In EP4667458A1 (Kanaph Therapeutics Inc., priority 2023, dated 2024):

target: T1, KRAS^G12C::SOS1 (Homo sapiens, UniProt Q07889); assay: KRAS G12C::SOS1 protein-protein interaction (PPI) inhibition assay (HTRF binding kit)
T1 sequence (Q07889 1-1333): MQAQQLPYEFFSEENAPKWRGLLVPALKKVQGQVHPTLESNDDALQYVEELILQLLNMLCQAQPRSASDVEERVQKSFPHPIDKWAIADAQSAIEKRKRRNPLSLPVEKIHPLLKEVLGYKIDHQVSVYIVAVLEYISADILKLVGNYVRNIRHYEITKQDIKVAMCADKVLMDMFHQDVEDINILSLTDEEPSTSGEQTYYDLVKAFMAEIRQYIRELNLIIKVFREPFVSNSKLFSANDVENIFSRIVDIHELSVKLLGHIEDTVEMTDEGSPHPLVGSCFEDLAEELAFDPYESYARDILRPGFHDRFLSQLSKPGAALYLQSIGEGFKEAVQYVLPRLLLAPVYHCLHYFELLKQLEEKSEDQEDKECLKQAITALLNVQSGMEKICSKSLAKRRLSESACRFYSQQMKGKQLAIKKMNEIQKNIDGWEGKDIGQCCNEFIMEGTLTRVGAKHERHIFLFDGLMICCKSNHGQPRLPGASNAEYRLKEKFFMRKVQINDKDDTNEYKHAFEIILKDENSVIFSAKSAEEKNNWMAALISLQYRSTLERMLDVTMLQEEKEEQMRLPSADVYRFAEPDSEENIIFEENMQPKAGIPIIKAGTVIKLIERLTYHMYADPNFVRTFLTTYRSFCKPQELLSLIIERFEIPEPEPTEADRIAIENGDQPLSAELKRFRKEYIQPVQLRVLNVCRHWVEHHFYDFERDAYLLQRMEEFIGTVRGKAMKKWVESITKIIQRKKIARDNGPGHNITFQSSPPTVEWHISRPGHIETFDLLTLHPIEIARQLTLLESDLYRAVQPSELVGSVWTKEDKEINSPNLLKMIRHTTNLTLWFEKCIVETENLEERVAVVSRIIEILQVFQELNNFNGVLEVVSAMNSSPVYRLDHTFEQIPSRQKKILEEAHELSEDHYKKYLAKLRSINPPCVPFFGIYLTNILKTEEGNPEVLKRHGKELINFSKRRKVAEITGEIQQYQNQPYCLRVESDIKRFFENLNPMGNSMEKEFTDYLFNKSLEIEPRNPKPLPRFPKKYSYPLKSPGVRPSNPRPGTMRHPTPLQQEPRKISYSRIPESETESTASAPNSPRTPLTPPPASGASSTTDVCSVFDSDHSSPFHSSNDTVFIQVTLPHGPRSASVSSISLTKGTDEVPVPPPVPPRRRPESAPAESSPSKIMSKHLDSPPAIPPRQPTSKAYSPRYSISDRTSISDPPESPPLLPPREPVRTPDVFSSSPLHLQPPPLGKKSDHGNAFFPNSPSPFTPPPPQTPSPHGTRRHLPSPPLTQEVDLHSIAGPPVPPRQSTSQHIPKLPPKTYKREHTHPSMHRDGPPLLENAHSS

Row | SMILES | IC50 [µM]
1 | C[C@@H](NC(=O)c1ccc(=O)n(-c2cccnc2F)n1)c1ccc(-c2cc(F)ccc2CN(C)C)s1 [Example 403, N-[(1R)-1-(5-{2-[(dimethylamino)methyl]-5-fluorophenyl}thiophen-2-yl)ethyl]-1-(2-fluoropyridin-3-yl)-6-oxo-1,6-dihydropyridazine-3-carboxamide] | < 1
2 | C[C@@H](NC(=O)c1ccc(=O)n(-c2cccc(-c3cnnn3C)c2F)n1)c1cc(N)cc(C(F)(F)F)c1 [Example 359, N-[(1R)-1-[3-amino-5-(trifluoromethyl)phenyl]ethyl]-1-[2-fluoro-3-(3-methyltriazol-4-yl)phenyl]-6-oxo-pyridazine-3-carboxamide] | < 1
3 | CCNCc1ccc(F)cc1-c1ccc([C@@H](C)NC(=O)c2ccc(=O)n(-c3cccnc3F)n2)s1 [Example 289, N-[(1R)-1-[5-[2-(ethylaminomethyl)-5-fluorophenyl]-2-thienyl]ethyl]-1-(2-fluoro-3-pyridyl)-6-oxo-pyridazine-3-carboxamide] | < 1
4 | C[C@@H](NC(=O)c1ccc(=O)n(-c2cccnc2F)n1)c1cc(N)cc(C(F)(F)F)c1 [Example 360, N-[(1R)-1-[3-amino-5-(trifluoromethyl)phenyl]ethyl]-1-(2-fluoro-3-pyridyl)-6-oxo-pyridazine-3-carboxamide] | < 1
5 | CNCc1cc(Cl)ccc1-c1ccc([C@@H](C)NC(=O)c2ccc(=O)n(-c3ccccc3F)n2)s1 [Example 281, N-[(1R)-1-[5-[4-chloro-2-(methylaminomethyl)phenyl]-2-thienyl]ethyl]-1-(2-fluorophenyl)-6-oxo-pyridazine-3-carboxamide] | < 1
6 | C[C@@H](NC(=O)c1nn(-c2ccccc2)c(=O)c2cc[nH]c12)c1cc(N)cc(C(F)(F)F)c1 [Example 308, N-[(1R)-1-[3-amino-5-(trifluoromethyl)phenyl]ethyl]-4-oxo-5-phenyl-1H-pyrrolo [2,3-d] pyridazine-7-carboxamide] | < 1
7 | C[C@H](NC(=O)c1ccc(=O)n(-c2ccccc2F)n1)c1cccc(F)c1Cl [Example 262, N-[(1S)-1-(2-chloro-3-fluorophenyl)ethyl]-1-(2-fluorophenyl)-6-oxo-pyridazine-3-carboxamide] | 1 to 10
8 | C[C@@H](NC(=O)c1ccc(=O)n(-c2cccc(-c3cnnn3C)c2F)n1)c1cccc(C(F)(F)CO)c1F [Example 358, N-[(1R)-1-[3-(1,1-difluoro-2-hydroxy-ethyl)-2-fluoro-phenyl]ethyl]-1-[2-fluoro-3-(3-methyltriazol-4-yl)phenyl]-6-oxo-pyridazine-3-carboxamide] | < 1
9 | C[C@@H](NC(=O)c1ccc(=O)n(-c2cccc(-c3ccnn3C)c2)c1)c1cc(N)cc(C(F)(F)F)c1 [Example 321, N-[(1R)-1-[3-amino-5-(trifluoromethyl)phenyl]ethyl]-1-[3-(2-methylpyrazol-3-yl)phenyl]-6-oxo-pyridine-3-carboxamide] | < 1
10 | C[C@@H](NC(=O)c1ccc(=O)n(-c2ccc(OC(F)(F)F)cc2)n1)c1cccc(C(F)(F)CO)c1F [Example 202, N-[(1R)-1-[3-(1,1-difluoro-2-hydroxy-ethyl)-2-fluoro-phenyl]ethyl]-6-oxo-1-[4-(trifluoromethoxy)phenyl]pyridazine-3-carboxamide] | < 1
11 | CNCc1cc(F)c(Cl)cc1-c1ccc([C@@H](C)NC(=O)c2ccc(=O)n(-c3cccnc3F)n2)s1 [Example 399, N-[(1R)-1-(5-{5-chloro-4-fluoro-2-[(methylamino)methyl]phenyl}thiophen-2-yl)ethyl]-1-(2-fluoropyridin-3-yl)-6-oxo-1,6-dihydropyridazine-3-carboxamide] | < 1
12 | CNC(=O)c1cccc(-n2nc(C(=O)N[C@H](C)c3cc(N)cc(C(F)(F)F)c3)ccc2=O)c1 [Example 253, N-[(1R)-1-[3-amino-5-(trifluoromethyl)phenyl]ethyl]-1-[3-(methylcarbamoyl)phenyl]-6-oxo-pyridazine-3-carboxamide] | < 1
13 | C[C@@H](NC(=O)c1ccc(=O)n(-c2ccccc2F)n1)c1cccc(Oc2ccccc2)c1 [Example 306, 1-(2-fluorophenyl)-6-oxo-N-[(1R)-1-(3-phenoxyphenyl)ethyl]pyridazine-3-carboxamide] | > 10
14 | [2H]C([2H])([2H])n1nncc1-c1cccc(-n2nc(C(=O)N[C@H](C)c3cc(N)cc(C(F)(F)F)c3)ccc2=O)c1 [Example 237, N-[(1R)-1-[3-amino-5-(trifluoromethyl)phenyl]ethyl]-1-[3-(3-(trideuteriomethyl)triazol-4-yl)phenyl]-6-oxo-pyridazine-3-carboxamide] | < 1
15 | CNCc1ccc(F)cc1-c1ncc([C@@H](C)NC(=O)c2ccc(=O)n(-c3ccccc3F)n2)s1 [Example 396, N-[(1R)-1-[2-[5-fluoro-2-(methylaminomethyl)phenyl]thiazol-5-yl]ethyl]-1-(2-fluorophenyl)-6-oxo-pyridazine-3-carboxamide] | < 1
16 | C[C@@H](NC(=O)c1ccc(=O)n(-c2cccc(-c3ccn(C(F)F)n3)c2)n1)c1cccc(C(F)(F)CO)c1F [Example 345, N-[(1R)-1-[3-(1,1-difluoro-2-hydroxy-ethyl)-2-fluoro-phenyl]ethyl]-1-[3-[1-(difluoromethyl)pyrazol-3-yl]phenyl]-6-oxo-pyridazine-3-carboxamide] | < 1
17 | COCc1cccc(-n2nc(C(=O)N[C@H](C)c3cc(N)cc(C(F)(F)F)c3)ccc2=O)c1 [Example 205, N-[(1R)-1-[3-amino-5-(trifluoromethyl)phenyl]ethyl]-1-[3-(methoxymethyl)phenyl]-6-oxo-pyridazine-3-carboxamide] | < 1
18 | C[C@@H](NC(=O)c1ccc(=O)n(-c2cccc(C(=O)N(C)C)c2F)n1)c1cc(N)cc(C(F)(F)F)c1 [Example 354, N-[(1R)-1-[3-amino-5-(trifluoromethyl)phenyl]ethyl]-1-[3-(dimethylcarbamoyl)-2-fluoro-phenyl]-6-oxo-pyridazine-3-carboxamide] | < 1
19 | C[C@@H](NC(=O)c1ccc(=O)[nH]n1)c1cc(N)cc(C(F)(F)F)c1 [Example 221, N-[(1R)-1-[3-amino-5-(trifluoromethyl)phenyl]ethyl]-6-oxo-1H-pyridazine-3-carboxamide] | < 1
20 | C[C@@H](NC(=O)c1nn(-c2cnn(C)c2)c(=O)c2ccsc12)c1cc(N)cc(C(F)(F)F)c1 [Example 316, N-[(1R)-1-[3-amino-5-(trifluoromethyl)phenyl]ethyl]-5-(1-methylpyrazol-4-yl)-4-oxo-thieno[2,3-d]pyridazine-7-carboxamide] | < 1
21 | CNCc1ccccc1-c1ccc([C@@H](C)NC(=O)c2ccc(=O)n(-c3ccc(F)cc3F)n2)s1 [Example 398, (R)-1-(2,4-difluorophenyl)-N-(1-(5-(2-((methylamino)methyl)phenyl)thiophenyl-2-yl)ethyl)-6-oxo-1,6-dihydropyridazine-3-carboxamide] | < 1
22 | Cc1ncc(-n2nc(C(=O)N[C@H](C)c3cc(N)cc(C(F)(F)F)c3)ccc2=O)s1 [Example 385, N-[(1R)-1-[3-amino-5-(trifluoromethyl)phenyl]ethyl]-1-(2-methylthiazol-5-yl)-6-oxo-pyridazine-3-carboxamide] | < 1
23 | Cc1nnnn1-c1cccc(-n2cc(C(=O)N[C@H](C)c3cc(N)cc(C(F)(F)F)c3)ccc2=O)c1 [Example 374, N-[(1R)-1-[3-amino-5-(trifluoromethyl)phenyl]ethyl]-1-[3-(5-methyltetrazol-1-yl)phenyl]-6-oxo-pyridine-3-carboxamide] | < 1
24 | C[C@@H](NC(=O)c1ccc(=O)n(-c2ccccc2F)n1)c1cc(N)cc(C(F)(F)F)c1F [Example 245, N-[(1R)-1-[5-amino-2-fluoro-3-(trifluoromethyl)phenyl]ethyl]-1-(2-fluorophenyl)-6-oxo-pyridazine-3-carboxamide] | < 1
25 | C[C@@H](O)c1cccc(-n2nc(C(=O)N[C@H](C)c3cc(N)cc(C(F)(F)F)c3)ccc2=O)c1 [Example 173, N-[(1R)-1-[3-amino-5-(trifluoromethyl)phenyl]ethyl]-1-[3-[(1R)-1-hydroxyethyl]phenyl]-6-oxo-pyridazine-3-carboxamide] | < 1
